Here are results for 20 compounds from US20080234262A1 (Wyeth, priority 2007, published 2008).

Structures are written as SMILES.

For orientation: IC50 means the concentration that inhibits the measured activity by half.

The target in assay [1] is PI3K (Homo sapiens, UniProt P42336). The experiment in a line: Fluorescence polarization assay for PI3K.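 Note: PI3K kinase reaction on PIP2 with ATP, 30-60 min, product sensed by GST-GRP with red probe in fluorescence polarization (mP), controls without enzyme and at zero time.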 The conditions noted are these: PI3Kα; read-out: PI3Kα IC50. It counts as biochemical. A general note: Fluorescence polarisation rises when a labelled molecule tumbles more slowly, as on binding a larger partner.
Assay [2] relates to prostate line LNCap. Briefly: In vitro cell culture growth assay (MTS), LNCap. It counts as cell-based, human. The conditions noted are these: LNCap cells, three days after drug treatment.
The test system of assay [3] is breast line MDA468. The experiment in a line: In vitro cell culture growth assay (MTS), MDA468. It counts as cell-based, human. The following applies: MDA468 cells, three days after drug treatment. An outline of the steps: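 MDA468 or LNCap cells received inhibitors one day after plating and were grown for three days. Viable cell density read by MTS conversion, absorbance 490 nm, expressed as percent of control growth versus vehicle-treated cells on the same plate.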

PI3K, sequence (P42336 whole entry): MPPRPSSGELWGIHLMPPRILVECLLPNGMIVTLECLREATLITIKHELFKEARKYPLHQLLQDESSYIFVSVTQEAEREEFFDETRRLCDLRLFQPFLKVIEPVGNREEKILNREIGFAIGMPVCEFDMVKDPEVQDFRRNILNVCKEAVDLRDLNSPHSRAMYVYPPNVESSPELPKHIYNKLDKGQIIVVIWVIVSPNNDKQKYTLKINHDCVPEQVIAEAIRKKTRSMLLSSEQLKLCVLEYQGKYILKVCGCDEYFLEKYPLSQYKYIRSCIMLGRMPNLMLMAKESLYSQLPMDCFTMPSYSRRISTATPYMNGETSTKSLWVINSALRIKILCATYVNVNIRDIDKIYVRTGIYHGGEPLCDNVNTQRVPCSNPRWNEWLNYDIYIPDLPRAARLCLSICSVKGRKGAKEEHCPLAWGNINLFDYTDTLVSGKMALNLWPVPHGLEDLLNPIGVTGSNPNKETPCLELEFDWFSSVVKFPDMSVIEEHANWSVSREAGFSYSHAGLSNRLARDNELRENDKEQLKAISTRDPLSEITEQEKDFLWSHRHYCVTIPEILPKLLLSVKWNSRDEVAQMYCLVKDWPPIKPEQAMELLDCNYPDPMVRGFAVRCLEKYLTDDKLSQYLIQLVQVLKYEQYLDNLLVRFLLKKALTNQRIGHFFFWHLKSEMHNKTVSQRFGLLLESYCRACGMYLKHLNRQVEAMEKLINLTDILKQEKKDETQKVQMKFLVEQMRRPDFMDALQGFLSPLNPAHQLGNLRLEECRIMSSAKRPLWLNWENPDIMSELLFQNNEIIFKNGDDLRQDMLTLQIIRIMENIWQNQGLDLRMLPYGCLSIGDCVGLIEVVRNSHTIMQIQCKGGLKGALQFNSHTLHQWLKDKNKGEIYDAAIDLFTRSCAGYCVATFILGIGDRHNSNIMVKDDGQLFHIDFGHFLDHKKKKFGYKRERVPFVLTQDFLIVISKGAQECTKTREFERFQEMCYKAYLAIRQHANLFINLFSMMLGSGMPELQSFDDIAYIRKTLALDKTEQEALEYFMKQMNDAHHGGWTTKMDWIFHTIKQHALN
PI3K, sequence (P27986 whole entry partner): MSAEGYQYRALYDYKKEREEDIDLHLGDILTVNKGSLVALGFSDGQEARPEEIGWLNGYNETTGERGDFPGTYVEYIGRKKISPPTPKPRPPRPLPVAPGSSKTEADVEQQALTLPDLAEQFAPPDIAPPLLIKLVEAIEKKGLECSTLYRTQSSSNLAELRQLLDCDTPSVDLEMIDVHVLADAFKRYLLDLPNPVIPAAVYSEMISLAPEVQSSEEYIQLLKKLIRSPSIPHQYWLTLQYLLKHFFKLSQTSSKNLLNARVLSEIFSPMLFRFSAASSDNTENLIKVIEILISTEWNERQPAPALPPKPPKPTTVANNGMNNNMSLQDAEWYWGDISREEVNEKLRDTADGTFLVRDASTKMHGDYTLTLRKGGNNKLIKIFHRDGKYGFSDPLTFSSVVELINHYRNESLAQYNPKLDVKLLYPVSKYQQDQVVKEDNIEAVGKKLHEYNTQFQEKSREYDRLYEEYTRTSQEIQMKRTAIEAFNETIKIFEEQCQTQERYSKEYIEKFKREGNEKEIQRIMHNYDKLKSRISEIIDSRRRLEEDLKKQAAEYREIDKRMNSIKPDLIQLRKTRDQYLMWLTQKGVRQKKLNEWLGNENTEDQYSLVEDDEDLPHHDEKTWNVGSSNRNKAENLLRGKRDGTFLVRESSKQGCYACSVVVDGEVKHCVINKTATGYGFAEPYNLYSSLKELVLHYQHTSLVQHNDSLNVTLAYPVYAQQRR

As to `OCCCN1CCC(n2ncc3c(N4CCOCC4)nc(-c4ccc5[nH]ccc5c4)nc32)CC1` [Compound 497, 3-{4-[6-(1H-indol-5-yl)-4-morpholin-4-yl-1H-pyrazolo[3,4-d]pyrimidin-1-yl]piperidin-1-yl}propan-1-ol], the IC50 in assay [1] came out at 7290 nM; in assay [2] (Homo sapiens, LNCaP, 72 h) it was 2500 nM; in assay [3] (Homo sapiens, 72 h) it was 3000 nM.
As to `CNC(=O)Nc1ccc(-c2nc(N3CCOCC3)c3cnn(C4CCN(Cc5ccc(Cl)nc5)CC4)c3n2)cc1` [Example 388, 1-[4-(1-{1-[(6-chloropyridin-3-yl)methyl]piperidin-4-yl}-4-morpholin-4-yl-1H-pyrazolo[3,4-d]pyrimidin-6-yl)phenyl]-3-methylurea], the IC50 in assay [1] is 47 nM; in assay [2] (Homo sapiens, LNCaP, 72 h) it was 27 nM; in assay [3] it was 100 nM.
On to `Oc1cccc(-c2nc(N3CCCOCC3)c3cnn(-c4ccccc4)c3n2)c1` [Compound 962, 3-[4-(1,4-oxazepan-4-yl)-1-phenyl-1H-pyrazolo[3,4-d]pyrimidin-6-yl]phenol], for which the IC50 turned out to be 1090 nM in assay [1]; 6000 nM in assay [2] (Homo sapiens, LNCaP, 72 h); 12000 nM in assay [3] (Homo sapiens, 72 h).
The like results for `O=C(Nc1ccc(-c2nc(N3CCOCC3)c3cnn(C4CCN(Cc5cccnc5)CC4)c3n2)cc1)Nc1cccnc1` [Compound 559, 1-(4-{4-morpholin-4-yl-1-[1-(pyridin-3-ylmethyl)piperidin-4-yl]-1H-pyrazolo[3,4-d]pyrimidin-6-yl}phenyl)-3-pyridin-3-ylurea] were, in that order, 20 nM, below 27 nM and below 27 nM.
Consider `CNC(=O)Nc1ccc(-c2nc(N3CCOCC3)c3cnn(C4CCN(Cc5cccc(F)c5)CC4)c3n2)cc1` [Compound 672, 1-(4-{1-[1-(3-fluorobenzyl)piperidin-4-yl]-4-morpholin-4-yl-1H-pyrazolo[3,4-d]pyrimidin-6-yl}phenyl)-3-methylurea], for which the IC50 in assay [1] was 30 nM; in assay [2] it was 27 nM; in assay [3], 150 nM.
Turning to `Oc1cccc(-c2nc(N3CCOCC3)c3cnn(C4CCN(Cc5ccco5)CC4)c3n2)c1` [Compound 15], the IC50 was 55 nM in assay [1]; 74 nM in assay [2] (Homo sapiens, LNCaP, 72 h); 600 nM in assay [3] (Homo sapiens, 72 h).
In the case of `CCCNC(=O)Nc1ccc(-c2nc(N3CCOCC3)c3cnn(C4CCN(Cc5ccccc5)CC4)c3n2)cc1` [Example 254, 1-{4-[1-(1-benzylpiperidin-4-yl)-4-morpholin-4-yl-1H-pyrazolo[3,4-d]pyrimidin-6-yl]phenyl}-3-propylurea], the IC50 is 341 nM in assay [1]; 220 nM in assay [2] (Homo sapiens, LNCaP, 72 h); 1500 nM in assay [3] (Homo sapiens, 72 h).
Regarding `NC(=O)Nc1ccc(-c2nc(N3CCOCC3)c3cnn(C4CCN(Cc5cccnc5)CC4)c3n2)cc1` [Example 313, 1-(4-{4-morpholin-4-yl-1-[1-(pyridin-3-ylmethyl)piperidin-4-yl]-1H-pyrazolo[3,4-d]pyrimidin-6-yl}phenyl)urea], the IC50 came out at 82 nM in assay [1]; 200 nM in assay [2] (Homo sapiens, LNCaP, 72 h); 200 nM in assay [3] (Homo sapiens, 72 h).
For `O=C(Nc1ccc(-c2nc(N3CCOCC3)c3cnn(C4CCN(Cc5cccnc5)CC4)c3n2)cc1)Nc1ccsc1` [Compound 620, 1-(4-{4-morpholin-4-yl-1-[1-(pyridin-3-ylmethyl)piperidin-4-yl]-1H-pyrazolo[3,4-d]pyrimidin-6-yl}phenyl)-3-(3-thienyl)urea], the IC50 is 10 nM in assay [1]; 34 nM in assay [2] (Homo sapiens, LNCaP, 72 h); 130 nM in assay [3] (Homo sapiens, 72 h).
As for `Cc1ccc(C(=O)N2CCC(n3ncc4c(N5CCOCC5)nc(-c5ccc6[nH]ccc6c5)nc43)CC2)cc1` [Example 53], the IC50 was 846 nM in assay [1]; 220 nM in assay [2] (Homo sapiens, LNCaP, 72 h); 3900 nM in assay [3] (Homo sapiens, 72 h).
Take `COC(=O)N1CCC(n2ncc3c(N4CCOCC4)nc(-c4ccc(NC(=O)OCC(F)(F)F)cc4)nc32)CC1` [Compound 908, methyl 4-[4-morpholin-4-yl-6-(4-{[(2,2,2-trifluoroethoxy)carbonyl]amino}phenyl)-1H-pyrazolo[3,4-d]pyrimidin-1-yl]piperidine-1-carboxylate]: the IC50 in assay [1] was above 10000 nM; in assay [2] (Homo sapiens, LNCaP, 72 h), 1300 nM; in assay [3] (Homo sapiens, 72 h) it was 17000 nM.
Consider `CC(C)OC(=O)N1CCC(n2ncc3c(N4CCOCC4)nc(-c4ccc(NC(=O)Nc5cccnc5)cc4)nc32)CC1` [Compound 838, isopropyl 4-(4-morpholin-4-yl-6-{4-[(pyridin-3-ylcarbamoyl)amino]phenyl}-1H-pyrazolo[3,4-d]pyrimidin-1-yl)piperidine-1-carboxylate], for which the IC50 in assay [1] stood at 74 nM; in assay [2] (Homo sapiens, LNCaP, 72 h), 28 nM; in assay [3] (Homo sapiens, 72 h), 150 nM.
As to `CCOC(=O)Nc1ccc(-c2nc(N3CCOCC3)c3cnn(C4CCN(Cc5ccccc5)CC4)c3n2)cc1` [Compound 207, ethyl {4-[1-(1-benzylpiperidin-4-yl)-4-morpholin-4-yl-1H-pyrazolo[3,4-d]pyrimidin-6-yl]phenyl}carbamate], the concentration for half-maximal inhibition (IC50) in assay [1] stood at 659 nM; in assay [2] (Homo sapiens, LNCaP, 72 h) it was 3000 nM; in assay [3] (Homo sapiens, 72 h), 5200 nM.
With `O=C(Nc1ccccc1)Nc1ccc(-c2nc(N3CCOCC3)c3cnn(C4CCN(Cc5cccnc5)CC4)c3n2)cc1F` [Example 351, 1-(2-fluoro-4-{4-morpholin-4-yl-1-[1-(pyridin-3-ylmethyl)piperidin-4-yl]-1H-pyrazolo[3,4-d]pyrimidin-6-yl}phenyl)-3-phenylurea], the IC50 was 41 nM in assay [1]; 70 nM in assay [2] (Homo sapiens, LNCaP, 72 h); 400 nM in assay [3] (Homo sapiens, 72 h).
On to `c1ccc(CN2CCC(n3ncc4c(N5CCOCC5)nc(-c5ccc6[nH]ccc6c5)nc43)CC2)nc1` [Compound 178], for which the IC50 in assay [1] came to 509 nM; in assay [2] (Homo sapiens, LNCaP, 72 h) it was 550 nM; in assay [3] (Homo sapiens, 72 h), 2100 nM.
As for `Oc1cccc(-c2nc(N3CCOCC3)c3cnn(CC(F)(F)F)c3n2)c1` [Compound 728, 3-[4-morpholin-4-yl-1-(2,2,2-trifluoroethyl)-1H-pyrazolo[3,4-d]pyrimidin-6-yl]phenol], the IC50 in assay [1] stood at 40 nM; in assay [2] (Homo sapiens, LNCaP, 72 h), 240 nM; in assay [3] (Homo sapiens, 72 h), 745 nM.
The like results for `O=C(c1ccc(Br)nc1)N1CCC(n2ncc3c(N4CCOCC4)nc(-c4ccc5[nH]ccc5c4)nc32)CC1` [Compound 203] were, in that order, 1160 nM, 1050 nM and 3000 nM.
In the case of `CNC(=O)Nc1ccc(-c2nc(N3CCOCC3)c3cnn(C4CCN(C(=O)c5ccccn5)CC4)c3n2)cc1` [Compound 662, 1-methyl-3-(4-{4-morpholin-4-yl-1-[1-(pyridin-2-ylcarbonyl)piperidin-4-yl]-1H-pyrazolo[3,4-d]pyrimidin-6-yl}phenyl)urea], the IC50 in assay [1] stood at 124 nM; in assay [2], 120 nM; in assay [3], 220 nM.
`O=C(NCCCO)Nc1ccc(-c2nc(N3CCOCC3)c3cnn(C4CCN(Cc5ccccc5)CC4)c3n2)cc1` [Example 269, 1-{4-[1-(1-benzylpiperidin-4-yl)-4-morpholin-4-yl-1H-pyrazolo[3,4-d]pyrimidin-6-yl]phenyl}-3-(3-hydroxypropyl)urea]: the half-inhibitory concentration (IC50) is 364 nM in assay [1]; 80 nM in assay [2] (Homo sapiens, LNCaP, 72 h); 700 nM in assay [3] (Homo sapiens, 72 h).
Regarding `NC(=O)Nc1ccc(-c2nc(N3CCOCC3)c3cnn(C4CCN(Cc5cccnc5)CC4)c3n2)cc1` [Compound 558, 1-(4-{4-morpholin-4-yl-1-[1-(pyridin-3-ylmethyl)piperidin-4-yl]-1H-pyrazolo[3,4-d]pyrimidin-6-yl}phenyl)urea], the IC50 worked out at 82 nM in assay [1]; 200 nM in assay [2] (Homo sapiens, LNCaP, 72 h); 200 nM in assay [3] (Homo sapiens, 72 h).
